Data reported in patent US20230027066A1 (Urovant Sciences GmbH, priority 2019, published 2023).

Experiment: ABPM study, in-clinic vital signs
Assay type: in vivo, human
Settings: SAF; for In-clinic vital signs change from baseline ≥5, subjects / In-clinic vital signs change from baseline ≥10, subjects / In-clinic vital signs change from baseline ≥15, subjects: parameter not given (Table 111)
Protocol: Safety was evaluated by assessment of clinical laboratory tests, physical examinations, and vital signs measurements from office visits at various time points during the study, and by the documentation of AEs.
Tables 106, 107, and 108 show the changes to in-clinic measurements of systolic blood pressure, diastolic blood pressure, and heart rate over the treatment period.
For subjects with a body weight of at least about 65.4 kg, there was no difference between treatment and placebo in the number of subjects with a ≥5, ≥10, or ≥15 mm Hg increase in systolic blood pressure. The same was true for subjects over the age of 66.

[1] = Baseline to Day 28, subgroup Age <= 75th percentile (66 years)
[2] = Baseline to Day 28, subgroup Age > 75th percentile (66 years)
[3] = Baseline to Day 28, subgroup Body Weight <= 25th Percentile (65.4 kg)
[4] = Baseline to Day 28, subgroup Body Weight > 25th Percentile (65.4 kg)
[5] = Baseline to Day 28, subgroup Pre-existing hypertension: NO
[6] = Baseline to Day 28, subgroup Pre-existing hypertension: YES
[7] = Baseline to Day 28, subgroup eGFR <= 25th Percentile (72 mL/min/1.73 m^2)
[8] = Baseline to Day 28, subgroup eGFR > 25th Percentile (72 mL/min/1.73 m^2)
[9] = Baseline to End of Treatment, subgroup <= 25th percentile BW (65.4 kg)
[10] = Baseline to End of Treatment, subgroup >25th percentile BW (65.4 kg)
[11] = Baseline to End of Treatment, subgroup Age <= 75th percentile (66 years)
[12] = Baseline to End of Treatment, subgroup Age > 75th percentile (66 years)
[13] = Baseline to End of Treatment, subgroup Pre-existing hypertension: NO
[14] = Baseline to End of Treatment, subgroup Pre-existing hypertension: YES
[15] = Baseline to End of Treatment, subgroup eGFR <= 25th percentile (72 mL/min/1.73 m^2)
[16] = Baseline to End of Treatment, subgroup eGFR > 25th percentile (72 mL/min/1.73 m^2)
[17] = Over 28 Days on 3 Consecutive Visits
[18] = Over 28 Days on 3 Consecutive Visits, subgroup Body Weight <= 25th Percentile (65.4 kg)
[19] = Over 28 Days on 3 Consecutive Visits, subgroup Body Weight > 25th Percentile (65.4 kg)
[20] = Over 28 Days on 3 Consecutive Visits, subgroup eGFR <= 25th Percentile (72 mL/min/1.73 m^2)
[21] = Over 28 Days on 3 Consecutive Visits, subgroup eGFR > 25th Percentile (72 mL/min/1.73 m^2)

O=C(Nc1ccc(C[C@@H]2CC[C@H]([C@H](O)c3ccccc3)N2)cc1)[C@@H]1CCc2nccc(=O)n21 [Vibegron, (6S)-N-[4-[[(2S,5R)−5-[(R)-hydroxy(phenyl)methyl]pyrrolidin−2-yl]methyl]phenyl]−4-oxo−7,8-dihydro−6H-pyrrolo[1,2-a]pyrimidine−6-carboxamide]
In-clinic DBP (mmHg) change from baseline ≥5, subjects (Baseline to Day 28): 24 (23.3) n (%) | In-clinic DBP (mmHg) change from baseline ≥10, subjects (Baseline to Day 28): 9 (8.7) n (%) | In-clinic DBP (mmHg) change from baseline ≥15, subjects (Baseline to Day 28): 2 (1.9) n (%) | In-clinic HR (bpm) change from baseline ≥5, subjects (Baseline to Day 28): 24 (23.3) n (%) | In-clinic HR (bpm) change from baseline ≥10, subjects (Baseline to Day 28): 8 (7.8) n (%) | In-clinic HR (bpm) change from baseline ≥15, subjects (Baseline to Day 28): 3 (2.9) n (%) | In-clinic SBP (mmHg) change from baseline ≥5, subjects (Baseline to Day 28): 33 (32.0) n (%) | In-clinic SBP (mmHg) change from baseline ≥10, subjects (Baseline to Day 28): 22 (21.4) n (%) | In-clinic SBP (mmHg) change from baseline ≥15, subjects (Baseline to Day 28): 10 (9.7) n (%) | In-clinic SBP change from baseline ≥5, subjects [1]: 28 (34.6) n (%) | In-clinic SBP change from baseline ≥10, subjects [1]: 18 (22.2) n (%) | In-clinic SBP change from baseline ≥15, subjects [1]: 9 (11.1) n (%) | In-clinic SBP change from baseline ≥5, subjects [2]: 5 (22.7) n (%) | In-clinic SBP change from baseline ≥10, subjects [2]: 4 (18.2) n (%) | In-clinic SBP change from baseline ≥15, subjects [2]: 1 (4.5) n (%) | In-clinic SBP change from baseline ≥5, subjects [3]: 9 (32.1) n (%) | In-clinic SBP change from baseline ≥10, subjects [3]: 6 (21.4) n (%) | In-clinic SBP change from baseline ≥15, subjects [3]: 2 (7.1) n (%) | In-clinic SBP change from baseline ≥5, subjects [4]: 24 (32.0) n (%) | In-clinic SBP change from baseline ≥10, subjects [4]: 16 (21.3) n (%) | In-clinic SBP change from baseline ≥15, subjects [4]: 8 (10.7) n (%) | In-clinic SBP change from baseline ≥5, subjects [5]: 20 (31.3) n (%) | In-clinic SBP change from baseline ≥10, subjects [5]: 13 (20.3) n (%) | In-clinic SBP change from baseline ≥15, subjects [5]: 6 (9.4) n (%) | In-clinic SBP change from baseline ≥5, subjects [6]: 13 (33.3) n (%) | In-clinic SBP change from baseline ≥10, subjects [6]: 9 (23.1) n (%) | In-clinic SBP change from baseline ≥15, subjects [6]: 4 (10.3) n (%) | In-clinic SBP change from baseline ≥5, subjects [7]: 7 (23.3) n (%) | In-clinic SBP change from baseline ≥10, subjects [7]: 4 (13.3) n (%) | In-clinic SBP change from baseline ≥15, subjects [7]: 1 (3.3) n (%) | In-clinic SBP change from baseline ≥5, subjects [8]: 26 (35.6) n (%) | In-clinic SBP change from baseline ≥10, subjects [8]: 18 (24.7) n (%) | In-clinic SBP change from baseline ≥15, subjects [8]: 9 (12.3) n (%) | In-clinic DBP (mmHg) change from baseline ≥5, subjects (Baseline to End of Treatment): 31 (29.5) n (%) | In-clinic DBP (mmHg) change from baseline ≥10, subjects (Baseline to End of Treatment): 12 (11.4) n (%) | In-clinic DBP (mmHg) change from baseline ≥15, subjects (Baseline to End of Treatment): 7 (6.7) n (%) | In-clinic HR (bpm) change from baseline ≥5, subjects (Baseline to End of Treatment): 37 (35.2) n (%) | In-clinic HR (bpm) change from baseline ≥10, subjects (Baseline to End of Treatment): 12 (11.4) n (%) | In-clinic HR (bpm) change from baseline ≥15, subjects (Baseline to End of Treatment): 4 (3.8) n (%) | In-clinic SBP (mmHg) change from baseline ≥5, subjects (Baseline to End of Treatment): 36 (34.3) n (%) | In-clinic SBP (mmHg) change from baseline ≥10, subjects (Baseline to End of Treatment): 22 (21.0) n (%) | In-clinic SBP (mmHg) change from baseline ≥15, subjects (Baseline to End of Treatment): 13 (12.4) n (%) | In-clinic SBP change from baseline ≥5, subjects [9]: 13 (43.3) n (%) | In-clinic SBP change from baseline ≥10, subjects [9]: 9 (30.0) n (%) | In-clinic SBP change from baseline ≥15, subjects [9]: 5 (16.7) n (%) | In-clinic SBP change from baseline ≥5, subjects [10]: 23 (30.7) n (%) | In-clinic SBP change from baseline ≥10, subjects [10]: 13 (17.3) n (%) | In-clinic SBP change from baseline ≥15, subjects [10]: 8 (10.7) n (%) | In-clinic SBP change from baseline ≥5, subjects [11]: 29 (34.9) n (%) | In-clinic SBP change from baseline ≥10, subjects [11]: 18 (21.7) n (%) | In-clinic SBP change from baseline ≥15, subjects [11]: 10 (12.0) n (%) | In-clinic SBP change from baseline ≥5, subjects [12]: 7 (31.8) n (%) | In-clinic SBP change from baseline ≥10, subjects [12]: 4 (18.2) n (%) | In-clinic SBP change from baseline ≥15, subjects [12]: 3 (13.6) n (%) | In-clinic SBP change from baseline ≥5, subjects [13]: 22 (33.3) n (%) | In-clinic SBP change from baseline ≥10, subjects [13]: 14 (21.2) n (%) | In-clinic SBP change from baseline ≥15, subjects [13]: 9 (13.6) n (%) | In-clinic SBP change from baseline ≥5, subjects [14]: 14 (35.9) n (%) | In-clinic SBP change from baseline ≥10, subjects [14]: 8 (20.5) n (%) | In-clinic SBP change from baseline ≥15, subjects [14]: 4 (10.3) n (%) | In-clinic SBP change from baseline ≥5, subjects [15]: 13 (43.3) n (%) | In-clinic SBP change from baseline ≥10, subjects [15]: 9 (30.0) n (%) | In-clinic SBP change from baseline ≥15, subjects [15]: 6 (20.0) n (%) | In-clinic SBP change from baseline ≥5, subjects [16]: 23 (30.7) n (%) | In-clinic SBP change from baseline ≥10, subjects [16]: 13 (17.3) n (%) | In-clinic SBP change from baseline ≥15, subjects [16]: 7 (9.3) n (%) | In-clinic DBP (mmHg) change from baseline ≥5, subjects [17]: 5 (5.1) n (%) | In-clinic DBP (mmHg) change from baseline ≥10, subjects [17]: 3 (3.1) n (%) | In-clinic DBP (mmHg) change from baseline ≥15, subjects [17]: 0 n (%) | In-clinic HR (bpm) change from baseline ≥5, subjects [17]: 6 (6.1) n (%) | In-clinic HR (bpm) change from baseline ≥10, subjects [17]: 3 (3.1) n (%) | In-clinic HR (bpm) change from baseline ≥15, subjects [17]: 0 n (%) | In-clinic SBP (mmHg) change from baseline ≥5, subjects [17]: 14 (14.3) n (%) | In-clinic SBP (mmHg) change from baseline ≥10, subjects [17]: 6 (6.1) n (%) | In-clinic SBP (mmHg) change from baseline ≥15, subjects [17]: 0 n (%) | In-clinic vital signs change from baseline ≥5, subjects [18]: 6 (23.1) n (%) | In-clinic vital signs change from baseline ≥10, subjects [18]: 2 (7.7) n (%) | In-clinic vital signs change from baseline ≥15, subjects [18]: 0 n (%) | In-clinic vital signs change from baseline ≥5, subjects [19]: 8 (11.1) n (%) | In-clinic vital signs change from baseline ≥10, subjects [19]: 4 (5.6) n (%) | In-clinic vital signs change from baseline ≥15, subjects [19]: 0 n (%) | In-clinic vital signs change from baseline ≥5, subjects [20]: 3 (10.7) n (%) | In-clinic vital signs change from baseline ≥10, subjects [20]: 1 (3.6) n (%) | In-clinic vital signs change from baseline ≥15, subjects [20]: 0 n (%) | In-clinic vital signs change from baseline ≥5, subjects [21]: 11 (15.7) n (%) | In-clinic vital signs change from baseline ≥10, subjects [21]: 5 (7.1) n (%) | In-clinic vital signs change from baseline ≥15, subjects [21]: 0 n (%)
